Test results reported in US20070218504A1, “HUMAN LEPTIN-DERIVED POLYPEPTIDES AND USES THEREOF” (UNIVERSITY OF PITTSBURGH, priority 2006, published 2007).

Assays:
[1] = system: IL-6 induced activation of STAT3; assay: IL-6 induced activation of STAT3 in human primary hepatocytes; type: cell-based; conditions: even higher CRP concentration
Excerpt: (§1) Human hepatocytes were isolated from donor livers. Briefly, the livers were perfused in a three-step process. A calcium-free buffer supplemented with EGTA is used to break […] junctions, which is followed by the same perfusion buffer without EGTA. Finally, a calcium-containing buffer supplemented with digestive enzymes (collagenase and DNase) was used. Following digestion, parenchymal hepatocytes were isolated by three steps of low-speed centrifugation. Cells with a viability of at least 85% were plated and cultured in hepatocytes maintenance medium (HMM) (Cambrex BioScience, Walkersville, Md.) supplemented with 10% fetal bovine serum (FBS), 0.1 μM dexamethasone, 0.1 μM insulin, and 50 μg/ml gentamicin on collagen-coated tissue culture dishes for 2-4 hours. The cells were subsequently cultured in the above medium without FBS.
(§2) Approximately 24 hours after seeded, the hepatocytes were washed with serum-free HMM supplemented with 0.1 μM dexamethasone and 0.1 μM insulin, and then cultured in the same medium for another 48 hours. Subsequently, the cells were switched to serum-free HMM supplemented with 0.1 μM dexamethasone before stimulated with leptin (NHPP) or rhIL-6 (R&D Systems, Minneapolis, Minn.) for 24 hours or 48 hours. For experiments involving PI3-kinase inhibitors, hepatocytes were pretreated with LY294002 (EMD Biosciences, Calif.) for 1 hour before hormonal stimulation.

[2] = target: T1, human OB-Rb (Homo sapiens, UniProt P48357); assay: 125I-labeled mouse leptin pre-incubated with human CRP, binding to HEK293 cells stably transfected with human OB-Rb; conditions: in the presence of 2 ng/ml mouse leptin
T1 construct: expressed in transfected cells
T1 sequence (P48357 22-1165): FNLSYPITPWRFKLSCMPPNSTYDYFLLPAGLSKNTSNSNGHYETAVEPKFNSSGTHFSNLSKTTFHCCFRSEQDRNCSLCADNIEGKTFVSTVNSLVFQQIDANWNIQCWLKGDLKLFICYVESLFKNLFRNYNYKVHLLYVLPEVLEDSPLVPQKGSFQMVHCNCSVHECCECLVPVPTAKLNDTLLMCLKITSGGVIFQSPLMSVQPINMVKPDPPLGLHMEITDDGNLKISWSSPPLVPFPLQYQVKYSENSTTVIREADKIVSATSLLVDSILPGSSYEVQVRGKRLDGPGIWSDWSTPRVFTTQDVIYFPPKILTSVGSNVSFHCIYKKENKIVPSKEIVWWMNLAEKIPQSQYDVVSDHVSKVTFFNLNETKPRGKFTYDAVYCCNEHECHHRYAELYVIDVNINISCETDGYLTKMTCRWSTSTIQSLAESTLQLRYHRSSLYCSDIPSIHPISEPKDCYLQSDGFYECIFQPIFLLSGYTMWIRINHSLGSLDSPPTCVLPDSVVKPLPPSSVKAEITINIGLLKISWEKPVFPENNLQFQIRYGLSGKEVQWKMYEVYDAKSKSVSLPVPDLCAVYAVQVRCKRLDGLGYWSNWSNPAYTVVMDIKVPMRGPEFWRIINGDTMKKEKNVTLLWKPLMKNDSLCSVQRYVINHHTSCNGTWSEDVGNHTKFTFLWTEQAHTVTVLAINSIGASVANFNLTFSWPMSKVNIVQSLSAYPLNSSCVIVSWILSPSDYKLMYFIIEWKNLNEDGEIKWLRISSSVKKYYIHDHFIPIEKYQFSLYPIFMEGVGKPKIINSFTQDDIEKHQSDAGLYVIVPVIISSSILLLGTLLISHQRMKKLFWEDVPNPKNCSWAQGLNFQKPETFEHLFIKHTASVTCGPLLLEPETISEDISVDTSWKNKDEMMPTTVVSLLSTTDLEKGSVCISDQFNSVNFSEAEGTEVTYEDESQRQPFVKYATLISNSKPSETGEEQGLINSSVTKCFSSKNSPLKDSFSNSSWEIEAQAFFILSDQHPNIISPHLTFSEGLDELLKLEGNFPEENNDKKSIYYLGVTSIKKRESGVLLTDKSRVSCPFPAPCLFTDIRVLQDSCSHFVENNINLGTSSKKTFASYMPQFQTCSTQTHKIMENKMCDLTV
Protocol: FIG. 4B. Effects of human CRP on mouse leptin. […] The dashed line at the bottom right of the graph indicates ^125I-leptin bound when two thousand fold excess of non-labeled mouse leptin is added.
To examine if CRP binding interferes with the stability of human leptin to bind to its receptors, a HEK293 cell line stably transfected with the long-form human leptin receptor, OB—Rb, was used (17). Human leptin was iodinated with Na^125I using the lodogen method. Briefly, 15 μg of recombinant human leptin in 100 mM Phosphate buffer pH 7.5 were incubated with 1 mCi of carrier-free Na^125I (2200 Ci/mmol) in a glass tube containing 50 μg Iodogen. After 10-minute incubation at room temperature, the reaction was stopped with 100 μl 0.1% trifluoroacetic acid (TFA). The reaction mixture was immediately purified by reverse-phase HPLC. The separation employed a 5-minute isocratic step at 20% eluant B in A, followed by two consecutive 30 min linear gradients from 20 to 50%, then from 50 to 60% eluant B in A (where eluant A is water containing 0.1% TFA and eluant B is acetonitrile containing 0.1% TFA) at a flow rate of 1.5 ml/min. The ^125I-labeled leptin (˜2 ng/ml) was pre-incubated with various concentrations of human CRP in 1 ml of μ-MEM for 1 hour before added to the OBR-expressing HEK293 cells. […]

[3] = system: CRP; assay: Leptin's effect on CRP secretion and expression in human hepatocytes (Western, real-time RT-PCR); type: cell-based
Excerpt: as §1, §2
Hepatocytes were isolated and treated as described in Example 4. Culture medium was centrifuged to remove detached cells and then heated at 95° C. for 5 minutes in SDS-sample buffer (Boston Bioproducts, Mass.). After separation on 10% SDS polyacrylamide gels, proteins were electro-transferred overnight to nitrocellulose membranes. Pre-blocked using 5% non-fat milk in PBS with 0.5% Tween 20, the membranes were incubated with appropriate primary antibody for 2 hours at room temperature, washed and incubated for 1 hour with a corresponding […] at room temperature. […]
CRP mRNA expression was measured by quantitative real-time RT-PCR. […]

| IC50 of human CRP for reducing 125I-labeled mouse leptin binding to receptor [2] | Substance | effect on IL-6 induced activation of STAT3 [1] | effect on CRP gene expression, short treatment ([3]; 6-8 hours) | effect on secreted CRP in the culture medium ([3]; human hepatocytes, physiological leptin concentrations, 24 hours) | effect on human CRP mRNA expression ([3]; real-time PCR) |
| --- | --- | --- | --- | --- | --- |
| greater than 64 μg/ml | human CRP: human C-reactive protein, purified preparation from a commercial source | did not suppress |  |  |  |
|  | human leptin: human recombinant leptin |  | did not influence CRP gene expression | dose-dependent positive effect | dosage-dependent effect |
